Tests used:
[1] = test system: RKO (RKOp27) human colon adenocarcinoma cells; test: Alamar Blue cell viability assay, anti-proliferative/cytotoxic activity on proliferating RKO subclones; format: cell-based; settings: RKOp27, 72 h, RKO p27 uninduced (proliferating) cells, value = class bound given in Table A, read-out: −logIC50 RKO p27 uninduced (proliferating) (converted)
Method in brief: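 Alamar Blue fluorescence (ex 544, em 590 nm) after 72 h compound exposure at 37 °C, 5% CO2, normalised to untreated controls set at 100%. Cells were seeded at 5000 per well and dosed 24 h later with serial semi-logarithmic dilutions in 10% FCS DMEM, four replicates each. −log IC50 [mol/l] was derived from concentration-effect curves.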

[2] = test system: subclones of RKO colon adenocarcinoma cells (RKOp27 or RKOp21) arrested by Ponasterone A; test: Alamar Blue cell viability assay, cell cycle specific mode of action: cells arrested by ectopic p27Kip1 induced by Ponasterone A versus proliferating cells; format: cell-based; settings: Homo sapiens, RKO p27 induced (arrested) cells, 10 μM Ponasterone A, 72 hours, value = class bound given in Table A, read-out: −logIC50 RKO p27 induced (arrested) (converted)
Method in brief: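 Viability of proliferating versus Ponasterone A (10 μM)-arrested RKOp27/RKOp21 cells after 72 h compound exposure at 37° C, in quadruplicate. Read-out is Alamar Blue fluorescence (544/590 nm) normalised to untreated cells = 100%; values as −log IC50.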

Row | SMILES | IC50 [1] | IC50 [2]
1 | N#Cc1c(NC(=O)/C=C/c2cccnc2)sc2c1CCC(COC(=O)N1CCCCO1)C2 (centres unmarked) [Example 117, [1,2]Oxazinane-2-carboxylic acid 3-cyano-2-((E)-3-pyridin-3-yl-allanoylamino)-4,5,6,7-tetrahydro-benzo[b]thiophen-6-ylmethyl ester] | ≤ 501 nM | ≥ 100000 nM
2 | COC1CN(C(=O)OC2CCc3c(sc(NC(=O)/C=C/c4cccnc4)c3C#N)C2)C1 (centres unmarked) [Example 118, 3-Methoxy-azetidine-1-carboxylic acid 3-cyano-2-((E)-3-pyridin-3-yl-allanoylamino)-4,5,6,7-tetrahydro-benzo[b]thiophen-6-yl ester] | 501 to 2000 nM | ≥ 100000 nM
3 | N#Cc1c(NC(=O)/C=C/c2cccnc2)sc2c1CCC(OC(=O)N1CCCO1)C2 (centres unmarked) [Example 119, Isoxazolidine-2-carboxylic acid 3-cyano-2-((E)-3-pyridin-3-yl-allanoylamino)-4,5,6,7-tetrahydro-benzo[b]thiophen-6-yl ester] | ≤ 501 nM | ≥ 100000 nM
4 | N#Cc1c(NC(=O)/C=C/c2cccnc2)sc2c1CCC(OC(=O)N1CCCCO1)C2 (centres unmarked) [Example 120, [1,2]Oxazinane-2-carboxylic acid 3-cyano-2-((E)-3-pyridin-3-yl-allanoylamino)-4,5,6,7-tetrahydro-benzo[b]thiophen-6-yl ester] | ≤ 501 nM | ≥ 100000 nM
5 | N#Cc1c(NC(=O)/C=C/c2cccnc2)sc2c1CCC(COC(=O)N1CC(F)C1)C2 (centres unmarked) [Example 121, 3-Fluoro-azetidine-1-carboxylic acid 3-cyano-2-((E)-3-pyridin-3-yl-allanoylamino)-4,5,6,7-tetrahydro-benzo[b]thiophen-6-ylmethyl ester] | ≤ 501 nM | ≥ 100000 nM
6 | N#Cc1c(NC(=O)/C=C/c2cccnc2)sc2c1CCC(COC(=O)N1CC[C@@H](O)[C@@H](O)C1)C2 (stereo partly drawn) [Example 122, cis-3-, 4-Dihydroxy-piperidine-1-carboxylic acid 3-cyano-2-((E)-3-pyridin-3-yl-allanoylamino)-4,5,6,7-tetrahydro-benzo[b]thiophen-6-ylmethyl ester] | ≤ 501 nM | ≥ 100000 nM
7 | CN(CC(O)CO)C(=O)OCC1CCc2c(sc(NC(=O)/C=C/c3cccnc3)c2C#N)C1 (centres unmarked) [Example 123, (2,3-Dihydroxy-propyl)-methyl-carbamic acid 3-cyano-2-((E)-3-pyridin-3-yl-allanoylamino)-4,5,6,7-tetrahydro-benzo[b]thiophen-6-ylmethyl ester] | 501 to 2000 nM | ≥ 100000 nM
8 | N#Cc1c(NC(=O)/C=C/c2cccnc2)sc2c1CCC(OC(=O)N1CC(F)C1)C2 (centres unmarked) [Example 124, 3-Fluoro-azetidine-1-carboxylic acid 3-cyano-2-((E)-3-pyridin-3-yl-allanoylamino)-4,5,6,7-tetrahydro-benzo[b]thiophen-6-yl ester] | ≤ 501 nM | ≥ 100000 nM
9 | N#Cc1c(NC(=O)/C=C/c2cccnc2)sc2c1CCC(OC(=O)N1CC[C@@H](O)[C@@H](O)C1)C2 (stereo partly drawn) [Example 125, cis-3-, 4-Dihydroxy-piperidine-1-carboxylic acid 3-cyano-2-((E)-3-pyridin-3-yl-allanoylamino)-4,5,6,7-tetrahydro-benzo[b]thiophen-6-yl ester] | 501 to 2000 nM | ≥ 100000 nM
10 | CN(CC(O)CO)C(=O)OC1CCc2c(sc(NC(=O)/C=C/c3cccnc3)c2C#N)C1 (centres unmarked) [Example 126, (2,3-Dihydroxy-propyl)-methyl-carbamic acid 3-cyano-2-((E)-3-pyridin-3-yl-allanoylamino)-4,5,6,7-tetrahydro-benzo[b]thiophen-6-yl ester] | 501 to 2000 nM | ≥ 100000 nM
11 | CS(=O)(=O)NC1CCN(C(=O)OC2CCc3c(sc(NC(=O)/C=C/c4cccnc4)c3C#N)C2)CC1 (centres unmarked) [Example 127, 4-Methane-sulfonylamino-piperidine-1-carboxylic acid 3-cyano-2-((E)-3-pyridin-3-yl-allanoylamino)-4,5,6,7-tetrahydro-benzo[b]thiophen-6-yl ester] | ≤ 501 nM | ≥ 100000 nM
12 | N#Cc1c(NC(=O)/C=C/c2cccnc2)sc2c1CCC(OC(=O)N[C@H]1CC[C@@H](O)CC1)C2 (stereo partly drawn) [Example 128, cis-4-Hydroxycyclohexyl-carbamic acid 3-cyano-2-((E)-3-pyridin-3-yl-allanoylamino)-4,5,6,7-tetrahydro-benzo[b]thiophen-6-yl ester] | 501 to 2000 nM | ≥ 100000 nM
13 | Cc1ccncc1/C=C/C(=O)Nc1sc2c(c1C#N)CCC(COC(=O)N(C)C)C2 (centres unmarked) [Example 129, Dimethyl-carbamic acid 3-cyano-2-[(E)-3-(4-methyl-pyridin-3-yl)-allanoylamino]-4,5,6,7-tetrahydro-benzo[b]thiophen-6-ylmethyl ester] | ≤ 501 nM | ≥ 100000 nM
14 | Cc1ccncc1/C=C/C(=O)Nc1sc2c(c1C#N)CCC(COC(=O)N1CCCC1)C2 (centres unmarked) [Example 130, Pyrrolidine-1-carboxylic acid 3-cyano-2-[(E)-3-(4-methyl-pyridin-3-yl)-allanoylamino]-4,5,6,7-tetrahydro-benzo[b]thiophen-6-ylmethyl ester] | ≤ 501 nM | ≥ 100000 nM
15 | Cc1ccncc1/C=C/C(=O)Nc1sc2c(c1C#N)CCC(COC(=O)N1CCC[C@@H](O)C1)C2 (stereo partly drawn) [Example 131, (R)-3-Hydroxy-piperidine-1-carboxylic acid 3-cyano-2-[(E)-3-(4-methyl-pyridin-3-yl)-allanoylamino]-4,5,6,7-tetrahydro-benzo[b]thiophen-6-ylmethyl ester] | ≤ 501 nM | ≥ 100000 nM
16 | Cc1ccncc1/C=C/C(=O)Nc1sc2c(c1C#N)CCC(COC(=O)N1CC(O)C1)C2 (centres unmarked) [Example 132, 3-Hydroxy-azetidine-1-carboxylic acid 3-cyano-2-[(E)-3-(4-methyl-pyridin-3-yl)-allanoylamino]-4,5,6,7-tetrahydro-benzo[b]thiophen-6-ylmethyl ester] | 501 to 2000 nM | ≥ 100000 nM
17 | Cc1ccncc1/C=C/C(=O)Nc1sc2c(c1C#N)CCC(COC(=O)N1CCC(O)CC1)C2 (centres unmarked) [Example 133, 4-Hydroxy-piperidine-1-carboxylic acid 3-cyano-2-[(E)-3-(4-methyl-pyridin-3-yl)-allanoylamino]-4,5,6,7-tetrahydro-benzo[b]thiophen-6-ylmethyl ester] | ≤ 501 nM | ≥ 100000 nM
18 | Cc1cc(CNC(=O)OCC2CCc3c(sc(NC(=O)/C=C/c4cnccc4C)c3C#N)C2)no1 (centres unmarked) [Example 134, (5-Methyl-isoxazol-3-ylmethyl)-carbamic acid 3-cyano-2-[(E)-3-(4-methyl-pyridin-3-yl)-allanoylamino]-4,5,6,7-tetrahydro-benzo[b]thiophen-6-ylmethyl ester] | ≤ 501 nM | ≥ 100000 nM
19 | Cc1ccncc1/C=C/C(=O)Nc1sc2c(c1C#N)CCC(COC(=O)N1CCC[C@H]1CO)C2 (stereo partly drawn) [Example 135, 2-(S)-(Hydroxymethyl) pyrrolidine-1-carbamic acid 3-cyano-2-[(E)-3-(4-methyl-pyridin-3-yl)-allanoylamino]-4,5,6,7-tetrahydro-benzo[b]thiophen-6-ylmethyl ester] | 501 to 2000 nM | ≥ 100000 nM
20 | COC(=O)[C@@H]1CCCN1C(=O)OCC1CCc2c(sc(NC(=O)/C=C/c3cccnc3)c2C#N)C1 (stereo partly drawn) [Example 136, 2-(S)-Pyrrolidine-1,2-dicarboxylic acid 1-[3-cyano-2-((E)-3-pyridin-3-yl-allanoylamino)-4,5,6,7-tetrahydro-benzo[b]thiophen-6-ylmethyl] ester 2-methyl ester] | 501 to 2000 nM | ≥ 100000 nM
21 | CC(C)CN(C)C(=O)OCC1CCc2c(sc(NC(=O)/C=C/c3cccnc3)c2C#N)C1 (centres unmarked) [Example 137, Isobutyl-methyl-carbamic acid 3-cyano-2-((E)-3-pyridin-3-yl-allanoylamino)-4,5,6,7-tetrahydro-benzo[b]thiophen-6-ylmethyl ester] | ≤ 501 nM | ≥ 100000 nM
22 | CN(C(=O)OCC1CCc2c(sc(NC(=O)/C=C/c3cccnc3)c2C#N)C1)C1CCCC1 (centres unmarked) [Example 138, Cyclopentyl-methyl-carbamic acid 3-cyano-2-((E)-3-pyridin-3-yl-allanoylamino)-4,5,6,7-tetrahydro-benzo[b]thiophen-6-ylmethyl ester] | 501 to 2000 nM | ≥ 100000 nM
23 | N#Cc1c(NC(=O)/C=C/c2cccnc2)sc2c1CCC(OC(=O)NC1CCC1)C2 (centres unmarked) [Example 139, Cyclobutyl-carbamic acid 3-cyano-2-((E)-3-pyridin-3-yl-allanoylamino)-4,5,6,7-tetrahydro-benzo[b]thiophen-6-yl ester] | ≤ 501 nM | ≥ 100000 nM
24 | CN(C)c1ncc(CNC(=O)OCC2CCc3c(sc(NC(=O)/C=C/c4cccnc4)c3C#N)C2)s1 (centres unmarked) [Example 140, (2-Dimethyl-amino-thiazol-5-ylmethyl)-carbamic acid 3-cyano-2-((E)-3-pyridin-3-yl-allanoylamino)-4,5,6,7-tetrahydro-benzo[b]thiophen-6-ylmethyl ester] | ≤ 501 nM | ≥ 100000 nM
25 | N#Cc1c(NC(=O)/C=C/c2cccnc2)sc2c1CCC(COC(=O)n1cccc1)C2 (centres unmarked) [Example 141, Pyrrole-1-carboxylic acid 3-cyano-2-((E)-3-pyridin-3-yl-allanoylamino)-4,5,6,7-tetrahydro-benzo[b]thiophen-6-ylmethyl ester] | 501 to 2000 nM | ≥ 100000 nM

From US20110044938A1 (NYCOMED GMBH, priority 2006, published 2011)
